# Results from patent US20120322819A1, “COMPOUND CONTAINING A NOVEL 4-ALKOXYPYRIMIDINE STRUCTURE AND MEDICINE CONTAINING SAME” (KOWA COMPANY, LTD., priority 2010, published 2012).
# Assays:
# [1] = molecular target: T1, angiotensin II type 1 receptor (Oryctolagus cuniculus, UniProt P34976); test: Angiotensin II antagonistic activity in isolated rabbit blood vessels (angiotensin II-induced contraction of thoracic aorta ring); settings: angiotensin II (10 nM)-induced contraction, compound 1 nmol/L to 10 μmol/L, 37° C., read-out: IC50 (50% inhibition concentration of angiotensin II-induced contraction)
# T1 construct: By using a specimen of isolated rabbit blood vessels; from tissue; host or cells: rabbit thoracic aorta ring (New Zealand White, male)
# T1 sequence (P34976 1-359): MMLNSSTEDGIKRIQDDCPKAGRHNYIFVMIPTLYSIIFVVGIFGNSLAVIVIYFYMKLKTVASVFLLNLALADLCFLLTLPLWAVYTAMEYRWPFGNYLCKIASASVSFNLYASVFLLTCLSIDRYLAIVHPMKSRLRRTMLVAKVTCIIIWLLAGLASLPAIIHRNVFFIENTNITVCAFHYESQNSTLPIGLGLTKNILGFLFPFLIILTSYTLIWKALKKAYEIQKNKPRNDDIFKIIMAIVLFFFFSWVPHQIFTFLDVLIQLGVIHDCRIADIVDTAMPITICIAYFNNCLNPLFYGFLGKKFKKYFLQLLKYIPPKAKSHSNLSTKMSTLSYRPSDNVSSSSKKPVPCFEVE
# From the text: Angiotensin II Antagonistic Activity in Isolated Rabbit Blood Vessels
# By using a specimen of isolated rabbit blood vessels, antagonistic activity of the compounds of the invention against angiotensin II type 1 receptor was estimated from a dose-response curve of angiotensin II-induced blood vessel contraction. Specifically, the specimen of thoracic aorta ring of a rabbit (New Zealand White: male, 2.4 to 3.0 kg) was suspended in a magnus bath filled with Krebs-Henseleite buffer (composition: 118 mM NaCl, 4.7 mM KCl, 2.55 mM CaCl2, 1.18 mM MgSO4, 1.18 mM KH2PO4, 24.88 mM NaHCO3, and 11.1 mM D-glucose), and angiotensin II (10 nM)-induced contraction was obtained in the presence of the compounds of each example (1 nmol/L to 10 μmol/L). During the measurement, the inside temperature of the magnus bath was maintained at 37° C. and the bath was continuously ventilated with a sufficient amount of mixed gas (95% O2 and 5% CO2). The angiotensin II-induced contraction was converted into a relative value (%) that is based on the angiotensin II (10 nM)—induced contraction in the absence of the compounds of each example. From the concentration-response curve obtained therefrom, 50% inhibition concentration (IC50 value) was calculated by using SAS Preclinical Package Ver 5.0 (trade name, manufactured by SAS institute Japan Co., Tokyo, Japan), which is a statistical analysis program.
# human PPARγ2 = molecular target: T2, human PPARγ2 (Homo sapiens, UniProt P37231); test: PPARγ activation activity, Gal4-PPARγ2 LBD chimera luciferase transfection assay in COST cells; format: cell-based; settings: Gal4 (aa 1-147)/human PPARγ2 LBD (aa 182-505) chimera, luciferase reporter, 16 hours, rosiglitazone (3 to 10 μmol/L) = 100%, read-out: EC50 (50% effective concentration, PPARγ activation)
# T2 construct: the amino acids 182 to 505 of human PPARγ2; expressed in transfected cells; host or cells: COST cells (so in the source)
# T2 sequence (P37231 182-505): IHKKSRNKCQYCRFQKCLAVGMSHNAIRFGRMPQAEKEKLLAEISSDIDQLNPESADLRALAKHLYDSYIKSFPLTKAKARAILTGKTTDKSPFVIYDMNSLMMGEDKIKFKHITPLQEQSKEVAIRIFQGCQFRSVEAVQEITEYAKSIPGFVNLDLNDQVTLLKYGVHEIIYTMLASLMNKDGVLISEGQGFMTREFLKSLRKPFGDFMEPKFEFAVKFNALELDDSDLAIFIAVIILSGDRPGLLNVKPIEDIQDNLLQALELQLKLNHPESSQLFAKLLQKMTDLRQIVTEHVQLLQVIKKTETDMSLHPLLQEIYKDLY
# Method: PPARγ Activation Activity
# The agonistic activity of the compounds of the invention on PPARγ was measured based on the transfection assay using COST cells (DS Pharma Biomedical Co., Ltd., Osaka, Japan), which are the cell line derived from the kidney of the African green monkey. COST cells were cultured under 5% CO2 concentration, and DMEM medium containing 10% fetal bovine serum, glutamic acid, and antibiotics was used as a medium.
# As an expression vector, a chimera in which DNA binding domain of Ga14, which is a yeast transcription factor, and ligand binding domain of human PPARγ2 are fused, i.e., a fused product between the amino acids 1 to 147 of Gal4 transcription factor and the amino acids 182 to 505 of human PPARγ2, was used. Furthermore, as a reporter vector, a firefly luciferase containing five copies of Gal4 recognition sequence in the promoter region was used. Plasmid transfection to the cells was performed according to a method which uses jetPEI (trade name, manufactured by Funakoshi Co., Ltd., Tokyo, Japan). Furthermore, β-galactosidase expression vector was employed as an internal standard.
# After the transfection of the cells, the medium was replaced with a DMEM medium (containing 1% serum) added with the test compound, and the cells were further cultured for 16 hours. After that, the luciferase activity and β-galactosidase activity in the cell lysis solution were measured.
# For the present test, dimethylsulfoxide (DMSO) was used for dissolution and dilution of the test compounds, and during the cell treatment, the DMSO concentration in DMEM medium (containing 1% serum) was adjusted to 0.1%. As a positive compound, rosiglitazone (trade name, manufactured by ALEXIS Corporation, Switzerland) was used. The percentage (%) of the luciferase activity of the each test compound (1 to 30 μmol/L) was calculated when the luciferase activity of rosiglitazone (3 to 10 μmol/L) is 100% and the luciferase activity in the absence of the test compound is 0%. The 50% effective concentration of the test compound (EC50, 50% effect concentration) was calculated by using SAS Preclinical Package Ver 5.0 (trade name, manufactured by SAS institute Japan Co., Tokyo, Japan), which is a statistical analysis program.
SMILES,IC50 [1],EC50 (human PPARγ2)
"CCCCc1nc(C)nc(OCC(C)=O)c1Cc1ccc(-c2ccccc2-c2noc(=O)[nH]2)cc1 [Example 22, 3-{4′-{[4-butyl-2-methyl-6-(2-oxopropoxy)pyrimidin-5-yl]methyl}-[1,1′-biphenyl]-2-yl}-1,2,4-oxadiazol-5(4H)-one]",100 nM,950 nM
"CCCCc1nc(C)nc(OCCCC(=O)OCC)c1Cc1ccc(-c2ccccc2-c2noc(=O)[nH]2)cc1 [Example 6, ethyl 4-{{6-butyl-2-methyl-5-{[2′-(5-oxo-4,5-dihydro-1,2,4-oxadiazol-3-yl)-[1,1′-biphenyl]-4-yl]methyl}pyrimidin-4-yl}oxy}butanoate]",130 nM,870 nM
"CCCCc1nc(C)nc(OCCOC)c1Cc1ccc(-c2ccccc2-c2noc(=O)[nH]2)cc1 [Example 33, 3-{4′-{[4-butyl-6-(2-methoxyethoxy)-2-methylpyrimidin-5-yl]methyl}-[1,1′-biphenyl]-2-yl}-1,2,4-oxadiazol-5(4H)-one]",480 nM,920 nM
"CCCCc1nc(C)nc(OCC(=O)O)c1Cc1ccc(-c2ccccc2-c2noc(=O)[nH]2)cc1 [Example 2, 2-{{6-butyl-2-methyl-5-{[2′-(5-oxo-4,5-dihydro-1,2,4-oxadiazol-3-yl)-[1,1′-biphenyl]-4-yl]methyl}pyrimidin-4-yl}oxy}acetic acid]",230 nM,–
"CCCCc1nc(C)nc(OCC(=O)N(CC)CC)c1Cc1ccc(-c2ccccc2-c2noc(=O)[nH]2)cc1 [Example 5, 2-{{6-butyl-2-methyl-5-{[2′-(5-oxo-4,5-dihydro-1,2,4-oxadiazol-3-yl)-[1,1′-biphenyl]-4-yl]methyl}pyrimidin-4-yl}oxy}-N,N-diethylacetamide]",60 nM,–
"CCCCc1nc(C)nc(OCCO)c1Cc1ccc(-c2ccccc2-c2noc(=O)[nH]2)cc1 [Example 15, 3-{4′-{[4-butyl-6-(2-hydroxyethoxy)-2-methylpyrimidin-5-yl]methyl}-[1,1′-biphenyl]-2-yl}-1,2,4-oxadiazol-5(4H)-one]",770 nM,1320 nM
"CCCCc1nc(C)nc(OC(Cc2ccccc2)C(=O)O)c1Cc1ccc(-c2ccccc2-c2noc(=O)[nH]2)cc1 (stereo not drawn) [Example 28, 2-{{6-butyl-2-methyl-5-{[2′-(5-oxo-4,5-dihydro-1,2,4-oxadiazol-3-yl)-[1,1′-biphenyl]-4-yl]methyl}pyrimidin-4-yl}oxy}-3-phenylpropionic acid]",640 nM,–
CCCCc1nc(C)nc(OCC(=O)N2CCCCC2)c1Cc1ccc(-c2ccccc2-c2noc(=O)[nH]2)cc1 [Example 30],230 nM,1210 nM
"CCCCc1nc(C)nc(OC(C(=O)O)c2ccccc2)c1Cc1ccc(-c2ccccc2-c2noc(=O)[nH]2)cc1 (stereo not drawn) [Example 26, 2-{{6-butyl-2-methyl-5-{[2′-(5-oxo-4,5-dihydro-1,2,4-oxadiazol-3-yl)-[1,1-biphenyl]-4-yl]methyl}pyrimidin-4-yl}oxy}-2-phenylacetic acid]",380 nM,2920 nM
"CCCCc1nc(C)nc(OCC(=O)NCC)c1Cc1ccc(-c2ccccc2-c2noc(=O)[nH]2)cc1 [Example 4, 2-{{6-butyl-2-methyl-5-{[2′-(5-oxo-4,5-dihydro-1,2,4-oxadiazol-3-yl)-[1,1′-biphenyl]-4-yl]methyl}pyrimidin-4-yl}oxy}-N-ethylacetamide]",290 nM,–
"CCCCc1nc(C)nc(OCC(=O)OCC)c1Cc1ccc(-c2ccccc2-c2noc(=O)[nH]2)cc1 [Example 1, ethyl 2-{{6-butyl-2-methyl-5-{[2′-(5-oxo-4,5-dihydro-1,2,4-oxadiazol-3-yl)-[1,1′-biphenyl]-4-yl]methyl}pyrimidin-4-yl}oxy}acetate]",810 nM,1050 nM
